Assay results: patent US8530650B2, “2, 5-diamino-substituted pyrido [4, 3-D] pyrimidines as autotaxin inhibitors against cancer” (MERCK PATENT GmbH, priority 2008, dated 2013)

Biological target: T1, recombinant autotaxin (Homo sapiens, UniProt Q13822)
T1 construct: made in house; host or cells: Hi5 insect cells (baculovirus)
Assay: Autotaxin assay (Amplex Red, LPC substrate)
Assay type: biochemical
Details: 75 μM LPC, Amplex Red fluorescence, ten 1:3 dilutions starting at 30 μM
Procedure: Autotaxin activity is measured indirectly by means of Amplex Red Reagent. In this course, Amplex Red is measured as fluorogenic indicator for generated H2O2. Autotaxin converts substrate lysophosphatidylcholine (LPC) to phosphocholine and lysophosphatidylic acid (LPA). After the conversion phosphocholine is reacted with alkaline phosphatase to obtain inorganic phosphate and choline. During the next step choline is oxidized with choline oxidase to yield betaine, whereby H2O2 is generated. H2O2 reacts with Amplex Red Reagent in the presence of peroxidase (Horseradish peroxidase) in an 1:1 stochiometry and yields highly fluorescent resorufin. The generated fluorescence is measured in a reaction-dependent kinetic mode in order to enable subtraction of fluorescence signals of possible other fluorescent compounds that are not part of the reaction from total measured fluorescence.
1.5 μl of a standard solution or of the compounds of the invention are dissolved in 20 mM Hepes pH 7.2 with maximally 7.7% DMSO in individual concentrations. The resulting solution is pre-incubated together with 10 μl (16 ng) of highly purified recombinant autotaxin in a black 384-hole microtiter plate for 30 min at 22° C. Thereafter, the reaction is started through the addition of 5 μL-a-lysophosphatidylcholine (LPC), whereby the final concentration of LPC is 75 μM. The mixture is incubated for 90 min. at 37° C. After the incubation Amplex Red Reagent, peroxidase (Horseradish peroxidase) and choline oxidase are added. The fluorescence is immediately measured at a wavelength of 612 nm with an excitation wavelength of 485 nm in a “Tecan Ultra multimode” fluorescence reader. The activity of autotaxin is indirectly calculated via the amount of detected generated H2O2.
For IC50 analysis, ten serial 1:3 dilutions starting at 30 μM for each compound were run in duplicates.
IC50 values were calculated on normalized data. For normalization, control wells were added to each assay plate and the signal of uninhibited control wells was set to 100%, whereas the signal inhibited by 500 μM C14 LPA, (Avanti Polar Lipids, Cat# 857120P) was set to 0%. Curves were fitted and IC50 values calculated by the following model using proprietary analysis software: Y=Bottom+(100−Bottom)/(1+10^((LogIC50−X)*HillSlope))
Where X is the logarithm of concentration. Y is the response; Y starts at Bottom and goes to Top with a sigmoid shape.
Protein: Recombinant autotaxin (baculoviral Hi5 expression)
Substrate: L-a-lysophosphatidyl choline (chicken egg); Avanti Polar Lipids #830071 P
Standard: C14 LPA, Avanti Polar Lipids, Cat# 857120P
Detection Reagent Amplex Red Reagent; Invitrogen #A12222; dissolved in 1.923 ml of DMSO peroxidase Type VI-A (horseradish), Sigma #P6782; dissolved in 7.45 ml of test buffer, Choline Oxidase; Sigma #C5896; dissolved in 2.47 ml test buffer
Detection Reagent Mix: 1:100 dilution of Amplex Red Regent in test buffer
Test buffer: 200 mM Tris-HCl, Merck, Cat # 1.08219, pH 7.9; 0.1% BSA, lipid free, Roche Cat#775835

SMILES | IC50 [µM]
Cc1cc(F)ccc1Nc1nccc2nc(NCc3ccc(Cl)cc3)ncc12 [Compound 49, N2-(4-Chloro-benzyl)-N5-(4-fluoro-2-methyl-phenyl)-pyrido[4,3-d]pyrimidine-2,5-diamine] | < 30
Clc1ccccc1CNc1ncc2c(NCCc3cccnc3)nccc2n1 [Compound 147, N2-(2-Chloro-benzyl)-N5-(2-pyridin-3-yl-ethyl)-pyrido[4,3-d]pyrimidine-2,5-diamine] | < 30
COc1ccc(CNc2ncc3c(Nc4ccc(OC)cc4OC)nccc3n2)cc1 [Compound 56, N5-(2,4-Dimethoxy-phenyl)-N2-(4-methoxy-benzyl)-pyrido[4,3-d]pyrimidine-2,5-diamine] | < 30
CCCN1CCN(C(=O)C2CCN(c3nccc4nc(NCc5ccccc5Cl)ncc34)CC2)CC1 [Compound 97, {1-[2-(2-Chloro-benzylamino)-pyrido[4,3-d]pyrimidin-5-yl]-piperidin-4-yl}-(4-propyl-piperazin-1-yl)-methanone] | < 10
CCOC(=O)CCNC(=O)C1CCCN(c2nccc3nc(NCc4ccccc4Cl)ncc23)C1 (stereo not shown) [Compound 92, 3-({1-[2-(2-Chloro-benzylamino)-pyrido[4,3-d]pyrimidin-5-yl]-piperidine-3-carbonyl}-amino)-propionic acid ethyl ester] | < 10
COc1ccc(CNc2ncc3c(Nc4ccc(C#N)cc4)nccc3n2)cc1 [Compound 57, 4-[2-(4-Methoxy-benzylamino)-pyrido[4,3-d]pyrimidin-5-ylamino]-benzonitrile] | < 30
O=C(C1CCN(c2nccc3nc(NCc4ccc(Cl)cc4)ncc23)CC1)N1CCCC1 [Compound 80, {1-[2-(4-Chloro-benzylamino)-pyrido[4,3-d]pyrimidin-5-yl]-piperidin-4-yl}-pyrrolidin-1-yl-methanone] | < 5
Clc1ccccc1CNc1ncc2c(NCCN3CCCCC3)nccc2n1 [Compound 18, N2-(2-Chloro-benzyl)-N5-(2-piperidin-1-yl-ethyl)-pyrido[4,3-d]pyrimidine-2,5-diamine] | < 30
Cc1cc(NC(=O)C2CCCN(c3nccc4nc(NCc5ccccc5Cl)ncc34)C2)no1 (stereo not shown) [Compound 87, 1-[2-(2-Chloro-benzylamino)-pyrido[4,3-d]pyrimidin-5-yl]-piperidine-3-carboxylic acid (5-methyl-isoxazol-3-yl)-amide] | < 30
COCCCNC(=O)C1CCCN(c2nccc3nc(NCc4ccccc4Cl)ncc23)C1 (stereo not shown) [Compound 90, 1-[2-(2-Chloro-benzylamino)-pyrido[4,3-d]pyrimidin-5-yl]-piperidine-3-carboxylic acid (3-methoxy-propyl)-amide] | < 30
COc1ccccc1CNc1ncc2c(Nc3ccc(F)cc3C)nccc2n1 [Compound 41, N5-(4-Fluoro-2-methyl-phenyl)-N2-(2-methoxy-benzyl)-pyrido[4,3-d]pyrimidine-2,5-diamine] | < 30
O=C(C1CCCN(c2nccc3nc(NCc4ccccc4Cl)ncc23)C1)N1CCN(c2ccccn2)CC1 (stereo not shown) [Compound 99, {1-[2-(2-Chloro-benzylamino)-pyrido[4,3-d]pyrimidin-5-yl]-piperidin-3-yl}-(4-pyridin-2-yl-piperazin-1-yl)-methanone] | < 5
Fc1ccc(Nc2nccc3nc(NCc4ccc(Cl)cc4)ncc23)c(F)c1 [Compound 45, N2-(4-Chloro-benzyl)-N5-(2,4-difluoro-phenyl)-pyrido[4,3-d]pyrimidine-2,5-diamine] | < 30
Fc1ccc(Nc2nccc3nc(NCc4ccc(Cl)cc4)ncc23)cc1F [Compound 48, N2-(4-Chloro-benzyl)-N5-(3,4-difluoro-phenyl)-pyrido[4,3-d]pyrimidine-2,5-diamine] | < 30
Cc1cc(F)ccc1Nc1nccc2nc(NCc3ccccc3)ncc12 [Compound 7, N2-Benzyl-N5-(4-fluoro-2-methyl-phenyl)-pyrido[4,3-d]pyrimidine-2,5-diamine] | < 30
Clc1ccccc1CNc1ncc2c(NCCCN3CCCC3)nccc2n1 [Compound 17, N2-(2-Chloro-benzyl)-N5-(3-pyrrolidin-1-yl-propyl)-pyrido[4,3-d]pyrimidine-2,5-diamine] | < 30

SMILES | IC50 [µM]
O=C(NCc1ccc(F)cc1Cl)C1CCN(c2nccc3nc(NCc4ccccc4Cl)ncc23)CC1 [Compound 144, 1-[2-(2-Chloro-benzylamino)-pyrido[4,3-d]pyrimidin-5-yl]-piperidine-4-carboxylic acid 2-chloro-4-fluoro-benzylamide] | < 30
CCN1CCN(C(=O)C2CCCN(c3nccc4nc(NCc5ccccc5Cl)ncc34)C2)CC1 (stereo not shown) [Compound 89, {1-[2-(2-Chloro-benzylamino)-pyrido[4,3-d]pyrimidin-5-yl]-piperidin-3-yl}-(4-ethyl-piperazin-1-yl)-methanone] | < 5
Clc1ccccc1CNc1ncc2c(NCCc3ccncc3)nccc2n1 [Compound 148, N2-(2-Chloro-benzyl)-N5-(2-pyridin-4-yl-ethyl)-pyrido[4,3-d]pyrimidine-2,5-diamine] | < 30
Fc1ccc(CNc2ncc3c(Nc4ccc(F)cc4F)nccc3n2)cc1 [Compound 25, N5-(2,4-Difluoro-phenyl)-N2-(4-fluoro-benzyl)-pyrido[4,3-d]pyrimidine-2,5-diamine] | < 30
Clc1ccccc1CNc1ncc2c(N3CCN(c4ncccn4)CC3)nccc2n1 [Compound 112, (2-Chloro-benzyl)-[5-(4-pyrimidin-2-yl-piperazin-1-yl)-pyrido[4,3-d]pyrimidin-2-yl]-amine] | < 30
Fc1ccc(Nc2nccc3nc(NCc4ccccc4)ncc23)c(F)c1 [Compound 4, N2-Benzyl-N5-(2,4-difluoro-phenyl)-pyrido[4,3-d]pyrimidine-2,5-diamine] | < 30
COCCNC(=O)C1CCN(c2nccc3nc(NCc4ccccc4OC)ncc23)CC1 [Compound 75, 1-[2-(2-Methoxy-benzylamino)-pyrido[4,3-d]pyrimidin-5-yl]-piperidine-4-carboxylic acid (2-methoxy-ethyl)-amide] | < 30
N#CCC(=O)N1CCN(c2nccc3nc(NCc4ccccc4Cl)ncc23)CC1 [Compound 128, 3-{4-[2-(2-Chloro-benzylamino)-pyrido[4,3-d]pyrimidin-5-yl]-piperazin-1-yl}-3-oxo-propionitrile] | < 30
Clc1ccccc1CNc1ncc2c(NCCCN3CCCCC3)nccc2n1 [Compound 16, N2-(2-Chloro-benzyl)-N5-(3-piperidin-1-yl-propyl)-pyrido[4,3-d]pyrimidine-2,5-diamine] | < 30
CCN(CC)CCCNC(=O)C1CCN(c2nccc3nc(NCc4ccccc4Cl)ncc23)CC1 [Compound 63, 1-[2-(2-Chloro-benzylamino)-pyrido[4,3-d]pyrimidin-5-yl]-piperidine-4-carboxylic acid (3-diethylamino-propyl)-amide] | < 10
Clc1ccccc1CNc1ncc2c(NCc3ccccc3Cl)nccc2n1 [Compound 10, N2,N5-Bis-(2-chloro-benzyl)-pyrido[4,3-d]pyrimidine-2,5-diamine] | < 30
COc1ccccc1CNc1ncc2c(Nc3ccc4c(c3)OCCO4)nccc2n1 [Compound 39, N5-(2,3-Dihydro-benzo[1,4]dioxin-6-yl)-N2-(2-methoxy-benzyl)-pyrido[4,3-d]pyrimidine-2,5-diamine] | < 30
COc1ccc(Nc2nccc3nc(NCc4ccccc4Cl)ncc23)cc1 [Compound 9, N2-(2-Chloro-benzyl)-N5-(4-methoxy-phenyl)-pyrido[4,3-d]pyrimidine-2,5-diamine] | < 30
O=C(NCCO)C1CCN(c2nccc3nc(NCc4ccccc4Cl)ncc23)CC1 [Compound 105, 1-[2-(2-Chloro-benzylamino)-pyrido[4,3-d]pyrimidin-5-yl]-piperidine-4-carboxylic acid (2-hydroxy-ethyl)-amide] | < 30
Cn1cc(CCC(=O)N2CCN(c3nccc4nc(NCc5ccccc5Cl)ncc34)CC2)cn1 [Compound 120, 1-{4-[2-(2-Chloro-benzylamino)-pyrido[4,3-d]pyrimidin-5-yl]-piperazin-1-yl}-3-(1-methyl-1H-pyrazol-4-yl)-propan-1-one] | < 30
